Reference: ChEMBL document CHEMBL1221220, “Transport and signaling via the amino acid binding site of the yeast Gap1 amino acid transceptor” (Nat Chem Biol, 2009)
Residue numbers refer to the chain shown, from its start. Activity calls are given as the source filed them. The rule behind the calls is not given here.

Assays:
[1] = test system: T1, General amino-acid permease GAP1 (Saccharomyces cerevisiae), P19145 [A405C]; test: Induction of yeast GAP1 A405C mutant-mediated amino acid uptake at 2 mM in presence of 10 mM MTSEA treated before compound addition
T1 sequence (whole entry): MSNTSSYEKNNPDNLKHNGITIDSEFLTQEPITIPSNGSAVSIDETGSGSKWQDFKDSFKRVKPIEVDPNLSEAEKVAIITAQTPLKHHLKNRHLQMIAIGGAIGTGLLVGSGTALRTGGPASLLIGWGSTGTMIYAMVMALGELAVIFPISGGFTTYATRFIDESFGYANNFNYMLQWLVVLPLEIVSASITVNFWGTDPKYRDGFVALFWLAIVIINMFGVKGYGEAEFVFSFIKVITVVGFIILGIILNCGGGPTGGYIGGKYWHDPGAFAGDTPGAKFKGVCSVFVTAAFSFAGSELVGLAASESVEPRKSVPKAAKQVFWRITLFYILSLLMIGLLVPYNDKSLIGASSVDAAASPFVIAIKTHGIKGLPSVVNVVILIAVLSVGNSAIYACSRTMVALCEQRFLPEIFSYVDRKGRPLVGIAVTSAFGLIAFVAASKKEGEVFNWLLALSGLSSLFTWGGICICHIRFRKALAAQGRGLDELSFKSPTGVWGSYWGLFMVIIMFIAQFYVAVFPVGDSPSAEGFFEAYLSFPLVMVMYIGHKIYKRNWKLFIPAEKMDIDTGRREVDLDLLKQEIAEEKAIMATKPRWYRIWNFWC

[2] = test system: T2, General amino-acid permease GAP1 (Saccharomyces cerevisiae), P19145 [V381C]; test: Activation of yeast Gap1 V381C mutant-mediated amino acid uptake at 10 mM
T2 sequence (whole entry): T1 sequence (whole entry) with V381C, C405A

[3] = test system: T3, General amino-acid permease GAP1 (Saccharomyces cerevisiae), P19145 [L387C]; test: Induction of yeast Gap1 L387C mutant-mediated trehalose activation at 10 mM
T3 sequence (whole entry): T1 sequence (whole entry) with L387C, C405A

[4] = test system: T1, General amino-acid permease GAP1 (Saccharomyces cerevisiae), P19145 [A405C]; test: Induction of yeast Gap1 A405C mutant-mediated […] activation at 2 mM in presence of 10 mM MTSEA treated before compound addition
[5] = test system: General amino-acid permease GAP1 (Saccharomyces cerevisiae), P19145 [I394C]; test: Inhibition of yeast Gap1 I394C mutant-mediated trehalose activation at 10 mM
[6] = test system: T4, General amino-acid permease GAP1 (Saccharomyces cerevisiae), P19145 [I384C]; test: Activation of yeast Gap1 I384C mutant-mediated amino acid uptake at 10 mM
T4 sequence (whole entry): T1 sequence (whole entry) with I384C, C405A

General amino-acid permease GAP1 (Saccharomyces cerevisiae), P19145 [I394C], sequence (P19145 whole entry I394C): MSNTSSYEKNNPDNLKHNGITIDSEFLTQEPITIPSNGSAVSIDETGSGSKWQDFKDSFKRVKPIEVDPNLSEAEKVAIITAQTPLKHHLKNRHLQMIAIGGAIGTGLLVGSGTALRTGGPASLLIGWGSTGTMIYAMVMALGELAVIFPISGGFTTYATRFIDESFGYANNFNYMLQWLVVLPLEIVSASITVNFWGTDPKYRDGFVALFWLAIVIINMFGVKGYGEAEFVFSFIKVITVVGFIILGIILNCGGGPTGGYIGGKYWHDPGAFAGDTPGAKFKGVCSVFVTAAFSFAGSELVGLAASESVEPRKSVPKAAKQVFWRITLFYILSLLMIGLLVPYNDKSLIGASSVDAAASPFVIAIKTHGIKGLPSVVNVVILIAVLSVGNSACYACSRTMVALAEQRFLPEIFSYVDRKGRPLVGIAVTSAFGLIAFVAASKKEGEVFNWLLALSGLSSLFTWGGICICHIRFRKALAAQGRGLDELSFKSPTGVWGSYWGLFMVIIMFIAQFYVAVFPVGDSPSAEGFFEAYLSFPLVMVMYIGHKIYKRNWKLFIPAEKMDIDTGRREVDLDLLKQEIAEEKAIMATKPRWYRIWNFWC

Activity [1]: Active
Activity [2]: inactive
Activity [3]: inactive
inhibition [4]: Active
inhibition [5]: Active
Activity [6]: inactive
Compound: NC(=O)NCCC[C@H](N)C(=O)O
